Data published in BigSolDB 2.1.

Clc1cc(Cl)cc(Cl)c1
solubility (mole fraction)
Details | in acetone | in cyclohexane | in ethyl acetate | in isobutanol | in isopropanol | in n-butanol | in n-propanol | in toluene
273.15 K | 0.0419 | – | 0.0928 | 0.0246 | 0.0144 | 0.036 | 0.0211 | 0.169
275.65 K | 0.0472 | – | 0.102 | 0.028 | 0.0167 | 0.0406 | 0.0238 | 0.184
278.15 K | 0.0524 | – | 0.113 | 0.0321 | 0.0195 | 0.0467 | 0.0273 | 0.199
280.65 K | 0.0581 | 0.131 | 0.123 | 0.0367 | 0.0225 | 0.0529 | 0.0313 | 0.218
283.15 K | 0.0644 | 0.147 | 0.137 | 0.042 | 0.0256 | 0.0592 | 0.0359 | 0.24
285.65 K | 0.0718 | 0.165 | 0.151 | 0.0478 | 0.0297 | 0.0679 | 0.0406 | 0.26
288.15 K | 0.079 | 0.186 | 0.164 | 0.0545 | 0.0339 | 0.0767 | 0.0466 | 0.287
290.65 K | 0.0876 | 0.207 | 0.179 | 0.0616 | 0.0384 | 0.0852 | 0.0532 | 0.311
293.15 K | 0.0963 | 0.231 | 0.195 | 0.0708 | 0.0441 | 0.0969 | 0.0598 | 0.337
295.65 K | 0.106 | 0.255 | 0.213 | 0.0804 | 0.0509 | 0.107 | 0.0677 | 0.368
298.15 K | 0.116 | 0.286 | 0.234 | 0.091 | 0.058 | 0.122 | 0.0764 | 0.399
300.65 K | 0.129 | 0.318 | 0.253 | 0.102 | 0.0649 | 0.136 | 0.0853 | 0.427
303.15 K | 0.14 | 0.35 | 0.274 | 0.117 | 0.074 | 0.15 | 0.0973 | 0.463
305.65 K | 0.154 | 0.391 | 0.298 | 0.131 | 0.0849 | 0.166 | 0.109 | 0.5
308.15 K | 0.171 | 0.434 | 0.325 | 0.147 | 0.0969 | 0.185 | 0.122 | 0.539
310.65 K | 0.192 | 0.481 | 0.352 | 0.166 | 0.11 | 0.207 | 0.138 | 0.575
313.15 K | 0.213 | 0.528 | 0.38 | 0.191 | 0.127 | 0.233 | 0.158 | 0.619
